Laboratory results: patent publication US10590129B2 (Incozen Therapeutics Pvt. Ltd., priority 2010, dated 2020)

Columns and labels:
[1] = system: MKN-45 cells; assay: Inhibition of MKN-45 proliferation (MTT); format: cell-based, human; details: for inhibition at 0.1 µM / inhibition at 1 µM: Homo sapiens, MKN-45, MKN-45 proliferation
Summary of the method: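 High-Met human gastric adenocarcinoma MKN-45 cells plated in complete growth medium, compounds added next day and viability read 3 days later by MTT dye reduction.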

melting point [°C]	Structure (SMILES)	inhibition at 0.1 µM ([1]; 0.1 μM) [%]	inhibition at 1 µM ([1]; number printed instead of class) [%]	inhibition at 1 µM [1] [%]	Inhibition (% Inhibition of MKN-45 proliferation) ([1]; MKN-45 proliferation, 0.1 μM)
198 to 201	CC(=O)Nc1cccc(-c2ccc3nnn(Cc4ccc5ncccc5c4)c3n2)c1 [Ex 69, N-(3-(3-(quinolin-6-ylmethyl)-3H-[1,2,3]triazolo[4,5-b]pyridin-5-yl)phenyl)acetamide]	< 25		< 25	
148 to 150	CN(C)CCCNC(=O)c1ccc(-c2ccc3nnn(Cc4ccc5ncccc5c4)c3n2)cc1F [Ex 72, N-(3-(dimethylamino)propyl)-2-fluoro-4-(3-(quinolin-6-ylmethyl)-3H-[1,2,3]triazolo[4,5-b]pyridin-5-yl)benzamide]				D (D = <25%)
128 to 130	CC(C)Oc1ccc(-c2ccc3nnn(Cc4ccc5ncccc5c4)c3n2)cc1F [Ex 75, 6-((5-(3-Fluoro-4-isopropoxyphenyl)-3H-[1,2,3]triazolo[4,5-b]pyridin-3-yl)methyl)quinoline]	< 25		< 25	
163 to 165	CN(C)C(=O)CCNC(=O)c1ccc(-c2ccc3nnn(Cc4ccc5ncccc5c4)c3n2)cc1F [Ex 76, N-(3-(dimethylamino)-3-oxopropyl)-2-fluoro-4-(3-(quinolin-6-ylmethyl)-3H-[1,2,3]triazolo[4,5-b]pyridin-5-yl)benzamide]	75 to 100		50 to 75	
177 to 179	CN(C)C(=O)CNC(=O)c1ccc(-c2ccc3nnn(Cc4ccc5ncccc5c4)c3n2)cc1F [Ex 77, N-(2-(dimethylamino)-2-oxoethyl)-2-fluoro-4-(3-(quinolin-6-ylmethyl)-3H-[1,2,3]triazolo[4,5-b]pyridin-5-yl)benzamide]	50 to 75		50 to 75	
175 to 177	O=C(NCC(=O)N1CCCC1)c1ccc(-c2ccc3nnn(Cc4ccc5ncccc5c4)c3n2)cc1F [Ex 78, 2-Fluoro-N-(2-oxo-2-(pyrrolidin-1-yl)ethyl)-4-(3-(quinolin-6-ylmethyl)-3H-[1,2,3]triazolo[4,5-b]pyridin-5-yl)benzamide]	50 to 75		50 to 75	

Continued, compound first:

Structure (SMILES)	melting point [°C]	inhibition at 0.1 µM ([1]; 0.1 μM) [%]	inhibition at 1 µM ([1]; number printed instead of class) [%]	inhibition at 1 µM [1] [%]	Inhibition (% Inhibition of MKN-45 proliferation) ([1]; MKN-45 proliferation, 0.1 μM)
Fc1ccc(-c2ccc3nnn(Cc4ccc5ncccc5c4)c3n2)cc1 [Ex 67, 6-((5-(4-Fluorophenyl)-3H-[1,2,3]triazolo[4,5-b]pyridin-3-yl)methyl)quinoline]	153 to 156	< 25	13.8		
Fc1ccccc1-c1ccc2nnn(Cc3ccc4ncccc4c3)c2n1 [Ex 68, 6-((5-(2-Fluorophenyl)-3H-[1,2,3]triazolo[4,5-b]pyridin-3-yl)methyl)quinoline]	164 to 166	< 25		< 25	
FC(F)(F)COc1cccc(-c2ccc3nnn(Cc4ccc5ncccc5c4)c3n2)c1 [Ex 70, 6-((5-(3-(2,2,2-Trifluoroethoxy)phenyl)-3H-[1,2,3]triazolo[4,5-b]pyridin-3-yl)methyl)quinoline]	151 to 154	< 25		< 25	
Nc1cccc(-c2ccc3nnn(Cc4ccc5ncccc5c4)c3n2)c1 [Ex 71, 3-(3-(quinolin-6-ylmethyl)-3H-[1,2,3]triazolo[4,5-b]pyridin-5-yl)aniline]	187 to 189	< 25		25 to 50	
Fc1cc(-c2ccc3nnn(Cc4ccc5ncccc5c4)c3n2)ccc1OCC1CC1 [Ex 79, 6-((5-(4-(Cyclopropylmethoxy)-3-fluorophenyl)-3H-[1,2,3]triazolo[4,5-b]pyridin-3-yl)methyl)quinoline]	160 to 162	< 25		50 to 75	
CC(C)COc1ccc(-c2ccc3nnn(Cc4ccc5ncccc5c4)c3n2)cc1F [Ex 80, 6-((5-(3-Fluoro-4-isobutoxyphenyl)-3H-[1,2,3]triazolo[4,5-b]pyridin-3-yl)methyl)quinoline]	115 to 157	< 25		25 to 50	
